In patent publication US9410158B2, “Genetically modified yeast species, and fermentation processes using genetically modified yeast” (Cargill Incorporated, priority 2003, dated 2016):

Tested on: xylose isomerase enzyme (PXYLA)
Assay: Inhibition of PXYLA activity in strain CD861 using xylitol (Ex. 8E)
Assay type: biochemical, Piromyces sp. E2
Method: Strain CD861 was grown in xylose media containing varying concentrations of xylitol, a known xylose isomerase inhibitor.

change of Km for the xylose isomerase enzyme (xylitol increased from 0 to 0.25 mM): doubled | change of Km for the xylose isomerase enzyme (xylitol increased to 0.50 mM): doubled again
SMILES: OC[C@@H](O)[C@H](O)[C@@H](O)CO [xylitol]
